Results on 10 compounds are retold here after patent publication US6248736A, “4-oxo-1,4-dihydro-3-quinolinecarboxamides as antiviral agents” (Pharmacia & Upjohn Company, priority 1999, dated 2001).

Like-named read-outs stand apart in the source and are kept apart here.

By IC50 is commonly meant the midpoint of a concentration-inhibition curve.

The target in one test is T1, HCMV polymerase (Human cytomegalovirus, UniProt P08546).
T1 construct: made in house; host or cells: recombinant baculovirus-infected SF-9 cells
In words: biochemical. How it is done:
(§1) The HCMV polymerase assay is performed using a scintillation proximity assay (SPA) as described in several references, such as N. D. Cook, et al., Pharmaceutical Manufacturing International, pages 49-53 (1992); K. Takeuchi, Laboratory Practice, September issue (1992); U.S. Pat. No. 4,568,649 (1986); which are incorporated by reference herein. Reactions are performed in 96-well plates. The assay is conducted in 100 μl volume with 5.4 mM HEPES (pH 7.5), 11.7 mM KCl, 4.5 mM MgCl2, 0.36 mg/ml BSA, and 90 nM ^3 H-dTTP. Assays are run with and without CHAPS, (3-[(3-Cholamidopropyl)-dimethylammonio]-1-propane-sulfonate) at a final concentration of 2 mM. HCMV polymerase is diluted in enzyme dilution buffer containing 50% glycerol, 250 mM NaCl, 10 mM HEPES (pH 7.5), 100 μg/ml BSA, and 0.01% sodium azide. The HCMV polymerase, which is expressed in recombinant baculovirus-infected SF-9 cells and purified according to literature procedures, is added at 10% (or 10 μl) of the final reaction volume, i.e., 100 μl. Compounds are diluted in 50% DMSO and 10 μl are added to each well. Control wells contain an equivalent concentration of DMSO. Unless noted otherwise, reactions are initiated via the addition of 6 nM biotinylated poly(dA)-oligo(dT) template/primer to reaction mixtures containing the enzyme, substrate, and compounds of interest. Plates are incubated in a 25 C or 37 C H2 O bath and terminated via the addition of 40 μl/reaction of 0.5 M EDTA (pH 8) per well. Reactions are terminated within the time-frame during which substrate incorporation is linear and varied depending upon the enzyme and conditions used, i.e., 30 min. for HCMV polymerase. Ten μl of streptavidin-SPA beads (20 mg/ml in PBS/10% glycerol) are added following termination of the reaction. Plates are incubated 10 min. at 37 C, then equilibrated to room temperature, and counted on a Packard Topcount. Linear regressions are performed and IC50 's are calculated using computer software.
A modified version of the above HCMV polymerase assay is performed as described above, but with the following changes: Compounds are diluted in 100% DMSO until final dilution into assay buffer. In the previous assay, compounds are diluted in 50% DMSO. 4.5 mM dithiotherotol (DTT) is added to the polymerase buffer. […] Other viral polymerase assays are performed using procedures similar to those described above.

For the next test, the target named is VZV polymerase (Varicella-zoster virus, UniProt P09252). In words: VZV polymerase assay (procedure similar to the HCMV polymerase assay). The class given is biochemical. How it is done: as §1, with “software. […]” for “software.”
In another test the target is HSV polymerase (Human herpesvirus 1, UniProt P04293). In words: HSV polymerase assay (procedure similar to the HCMV polymerase assay). The test is classed as biochemical. How it is done: as §1, with “software. […]” for “software.”
[1] abbreviates: HCMV polymerase, modified SPA, compounds in 100% DMSO, 4.5 mM DTT added.

Sequence of VZV polymerase (P09252 whole entry): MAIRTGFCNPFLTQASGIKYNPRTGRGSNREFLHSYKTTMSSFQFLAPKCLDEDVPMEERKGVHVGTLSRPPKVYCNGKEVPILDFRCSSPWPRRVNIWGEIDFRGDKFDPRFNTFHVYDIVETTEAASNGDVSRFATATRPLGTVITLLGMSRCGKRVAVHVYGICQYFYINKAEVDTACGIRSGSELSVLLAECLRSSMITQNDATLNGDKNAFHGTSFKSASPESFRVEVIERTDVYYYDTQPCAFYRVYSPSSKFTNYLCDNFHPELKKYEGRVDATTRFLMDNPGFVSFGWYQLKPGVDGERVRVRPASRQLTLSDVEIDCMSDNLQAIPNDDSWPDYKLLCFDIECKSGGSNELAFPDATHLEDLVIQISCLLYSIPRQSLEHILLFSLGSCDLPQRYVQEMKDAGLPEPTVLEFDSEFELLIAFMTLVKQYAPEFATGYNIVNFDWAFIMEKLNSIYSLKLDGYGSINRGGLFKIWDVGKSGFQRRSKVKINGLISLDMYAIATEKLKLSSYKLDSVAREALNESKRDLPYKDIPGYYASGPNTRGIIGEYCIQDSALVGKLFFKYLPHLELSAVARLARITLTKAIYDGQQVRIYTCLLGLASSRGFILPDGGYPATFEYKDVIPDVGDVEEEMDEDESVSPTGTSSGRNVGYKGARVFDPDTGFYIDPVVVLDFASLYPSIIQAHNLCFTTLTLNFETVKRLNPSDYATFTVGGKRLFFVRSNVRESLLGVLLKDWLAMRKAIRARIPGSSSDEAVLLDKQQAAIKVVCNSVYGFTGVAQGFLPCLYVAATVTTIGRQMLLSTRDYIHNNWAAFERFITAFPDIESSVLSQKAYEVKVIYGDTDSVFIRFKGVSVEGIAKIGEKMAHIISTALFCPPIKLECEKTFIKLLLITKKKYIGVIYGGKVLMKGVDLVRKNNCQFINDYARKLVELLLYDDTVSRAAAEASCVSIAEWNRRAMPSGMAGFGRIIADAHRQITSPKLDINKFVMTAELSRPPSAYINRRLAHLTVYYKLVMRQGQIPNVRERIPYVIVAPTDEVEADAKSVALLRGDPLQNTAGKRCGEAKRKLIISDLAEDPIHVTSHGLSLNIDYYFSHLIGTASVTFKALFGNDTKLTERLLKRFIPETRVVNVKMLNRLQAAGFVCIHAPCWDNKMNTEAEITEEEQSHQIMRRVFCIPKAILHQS
T1 sequence (P08546 whole entry): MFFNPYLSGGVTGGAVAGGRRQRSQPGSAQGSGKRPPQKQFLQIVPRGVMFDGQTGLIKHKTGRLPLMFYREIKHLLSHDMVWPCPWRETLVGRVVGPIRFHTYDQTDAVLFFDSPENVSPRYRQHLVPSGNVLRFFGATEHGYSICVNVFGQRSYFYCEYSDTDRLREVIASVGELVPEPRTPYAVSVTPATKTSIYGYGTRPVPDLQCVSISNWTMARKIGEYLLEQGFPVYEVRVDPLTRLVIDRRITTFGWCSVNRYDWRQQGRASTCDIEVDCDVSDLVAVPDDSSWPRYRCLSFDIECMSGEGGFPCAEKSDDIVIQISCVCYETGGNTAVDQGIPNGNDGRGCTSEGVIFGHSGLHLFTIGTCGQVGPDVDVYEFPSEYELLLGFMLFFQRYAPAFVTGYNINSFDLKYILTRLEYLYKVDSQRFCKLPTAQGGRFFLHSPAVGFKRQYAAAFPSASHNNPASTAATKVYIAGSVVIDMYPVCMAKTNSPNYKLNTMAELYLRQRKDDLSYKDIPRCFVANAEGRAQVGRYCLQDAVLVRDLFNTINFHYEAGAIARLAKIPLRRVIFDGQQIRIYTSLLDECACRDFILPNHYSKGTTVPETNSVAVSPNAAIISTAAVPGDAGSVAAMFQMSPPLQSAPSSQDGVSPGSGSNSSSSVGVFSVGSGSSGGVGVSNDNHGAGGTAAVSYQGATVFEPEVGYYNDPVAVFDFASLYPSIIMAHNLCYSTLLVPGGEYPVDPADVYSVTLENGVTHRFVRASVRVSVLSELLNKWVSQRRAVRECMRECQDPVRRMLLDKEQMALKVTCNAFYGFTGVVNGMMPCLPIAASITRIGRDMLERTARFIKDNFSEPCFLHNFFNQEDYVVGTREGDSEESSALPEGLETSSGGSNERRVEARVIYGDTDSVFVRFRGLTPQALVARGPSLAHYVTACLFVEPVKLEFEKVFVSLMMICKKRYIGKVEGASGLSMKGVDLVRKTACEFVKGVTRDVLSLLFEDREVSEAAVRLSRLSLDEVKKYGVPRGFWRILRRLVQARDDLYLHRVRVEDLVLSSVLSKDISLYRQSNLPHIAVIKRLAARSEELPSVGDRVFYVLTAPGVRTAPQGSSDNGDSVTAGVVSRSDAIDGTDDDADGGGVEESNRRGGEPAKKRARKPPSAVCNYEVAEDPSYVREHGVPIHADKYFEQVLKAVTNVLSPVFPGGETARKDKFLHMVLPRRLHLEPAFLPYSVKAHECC
Sequence of HSV polymerase (P04293 whole entry): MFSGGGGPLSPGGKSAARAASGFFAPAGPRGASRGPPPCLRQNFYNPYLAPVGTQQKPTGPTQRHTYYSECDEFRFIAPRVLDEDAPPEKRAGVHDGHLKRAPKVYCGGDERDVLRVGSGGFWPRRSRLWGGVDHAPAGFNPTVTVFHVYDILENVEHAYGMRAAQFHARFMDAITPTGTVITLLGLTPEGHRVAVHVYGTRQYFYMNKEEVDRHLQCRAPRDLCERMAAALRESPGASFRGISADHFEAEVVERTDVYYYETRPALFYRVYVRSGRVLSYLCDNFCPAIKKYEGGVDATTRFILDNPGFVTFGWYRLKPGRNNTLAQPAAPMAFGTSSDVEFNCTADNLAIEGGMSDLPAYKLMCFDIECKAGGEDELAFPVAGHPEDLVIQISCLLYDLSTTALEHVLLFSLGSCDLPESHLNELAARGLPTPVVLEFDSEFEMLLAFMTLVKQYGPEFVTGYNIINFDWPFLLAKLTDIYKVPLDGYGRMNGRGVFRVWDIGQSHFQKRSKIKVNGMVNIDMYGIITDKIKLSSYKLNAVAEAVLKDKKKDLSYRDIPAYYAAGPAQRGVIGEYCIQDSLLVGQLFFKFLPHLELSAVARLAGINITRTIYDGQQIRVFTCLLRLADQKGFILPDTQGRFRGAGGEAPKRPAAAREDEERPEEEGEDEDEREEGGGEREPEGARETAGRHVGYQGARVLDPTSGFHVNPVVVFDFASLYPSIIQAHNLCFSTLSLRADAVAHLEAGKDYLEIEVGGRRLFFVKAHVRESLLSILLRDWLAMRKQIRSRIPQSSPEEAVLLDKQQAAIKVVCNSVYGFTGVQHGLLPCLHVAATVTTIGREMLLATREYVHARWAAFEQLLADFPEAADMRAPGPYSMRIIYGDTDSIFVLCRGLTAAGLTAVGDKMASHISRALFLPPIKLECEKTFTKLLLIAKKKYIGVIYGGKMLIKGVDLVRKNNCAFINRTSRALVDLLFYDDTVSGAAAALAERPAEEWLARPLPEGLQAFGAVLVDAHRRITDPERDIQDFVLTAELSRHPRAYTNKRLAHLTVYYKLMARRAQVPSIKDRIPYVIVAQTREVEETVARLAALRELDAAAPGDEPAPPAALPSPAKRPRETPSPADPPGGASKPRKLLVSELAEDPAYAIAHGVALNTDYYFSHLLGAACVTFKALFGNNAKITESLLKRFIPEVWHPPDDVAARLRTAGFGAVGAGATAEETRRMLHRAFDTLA

`Cn1cc(C(=O)NCc2ccc(Cl)cc2)c(=O)c2cc(CN3CCSCC3)ccc21` [Example 7, N-(4-Chlorobenzyl)-1-methyl-4-oxo-6-(4-thiomorpholinyl-methyl)-1,4-dihydro-3-quinolinecarboxamide]: it took 2500 nM to reach half-maximal inhibition at HCMV polymerase (setting [1]) (IC50).

The compound `Cn1cc(C(=O)NCc2ccc(Cl)cc2)c(=O)c2cc(CO)ccc21` [Example 2, N-(4-Chlorobenzyl)-6-(hydroxymethyl)-1-methyl-4-oxo-1,4-dihydro-3-quinolinecarboxamide] yielded an IC50 on HCMV polymerase (setting [1]) of 7800 nM.

For the compound `Cn1cc(C(=O)NCc2ccc(Cl)cc2)c(=O)c2cc(CCCO)ccc21` [Example 5, N-(4-Chlorobenzyl)-6-(3-hydroxypropyl)-1-methyl-4-oxo-1,4-dihydro-3-quinolinecarboxamide], the IC50 at HCMV polymerase (setting [1]) turned out to be 480 nM; against VZV polymerase it was 410 nM; at HSV polymerase, 320 nM.

`Cn1cc(C(=O)NCc2ccc(Cl)cc2)c(=O)c2cc(CN3CCS(=O)(=O)CC3)ccc21` [Example 8, N-(4-chlorobenzyl)-6-[(1,1-dioxo-1',4-thiazinan-4-yl)methyl]-1-methyl-4-oxo-1,4-dihydro-3-quinolinecarboxamide] had an IC50 against HCMV polymerase (setting [1]) of 2600 nM.

In the case of `Cn1cc(C(=O)NCc2ccc(Cl)cc2)c(=O)c2cc(C(C)(C)CCO)ccc21` [Example 1, N-(4-chlorobenzyl)-6-(3-hydroxy-1,1-dimethylpropyl)-1-methyl-4-oxo-1,4-dihydro-3-quinolinecarboxamide], the concentration for half-maximal inhibition (IC50) at HCMV polymerase (setting [1]) was found to be 500 nM; on VZV polymerase, 2000 nM; against HSV polymerase it was 1800 nM.

Consider `CC(C)(C)n1cc(C(=O)NCc2ccc(Cl)cc2)c(=O)c2cc(CCCO)ccc21` [Example 6, 1-(tert-Butyl)-N-(4-chlorobenzyl)-6-(3-hydroxypropyl)-4-oxo-1,4-dihydro-3-quinolinecarboxamide], for which, at HCMV polymerase, half-maximal inhibition (IC50) was put at 2800 nM.

`Cn1cc(C(=O)NCc2ccc(Cl)cc2)c(=O)c2cc(CN3CC[S+]([O-])CC3)ccc21` [Example 9, N-(4-chlorobenzyl)-1-methyl-4-oxo-6-[(1-oxo-1',4-thiazinan-4-yl)methyl]-1,4-dihydro-3-quinolinecarboxamide] showed a half-maximal inhibitory concentration (IC50) at HCMV polymerase (setting [1]) of 4700 nM.

Turning to `Cn1cc(C(=O)NCc2ccc(Cl)cc2)c(=O)c2cc(CN3CCOCC3)ccc21` [Example 3, N-(4-Chlorobenzyl)-1-methyl-6-(4-morpholinylmethyl)-4-oxo-1,4-dihydro-3-quinolinecarboxamide], the IC50 on HCMV polymerase (setting [1]) came to 400 nM; against VZV polymerase, 440 nM; on HSV polymerase, 740 nM.

In turn, `Cn1cc(C(=O)NCc2ccc(Cl)cc2)c(=O)c2cc(CN3CCOCC3)cc(F)c21` [Example 10, N-(4-chlorobenzyl)-8-fluoro-1-methyl-6-(4-morpholinylmethyl)-4-oxo-1,4-dihydro-3-quinolinecarboxamide] showed an IC50 against HCMV polymerase of 1000 nM.

Take `O=C(NCc1ccc(Cl)cc1)c1cn(CCO)c2ccc(CCCO)cc2c1=O` [Example 4, N-(4-Chlorobenzyl)-1-(2-hydroxyethyl)-6-(3-hydroxypropyl)-4-oxo-1,4-dihydro-3-quinolinecarboxamide]: at HCMV polymerase (setting [1]), the IC50 came out at 370 nM.
